How the values of data set [1] were obtained: 60 ppm concentration Deuterium Depleted Water was used for healthy adult outbred Wistar rats. Mono-chemotherapy was used to treat these animals using the following cytostatics: Vinblastine (VBL); Cyclophosphamide (CFS); 5-Fluorouracil (5-Fu); Farmarubicine (FARM). The administered doses were:
VBL—0.1 mg/kg body weight;
5-Fu—10 mg/kg body weight; and
FARM—1 mg/kg body weight.
The cytostatics were intra-peritoneally administered (i.p.) for 5 days consecutively.
The animals were distributed into two groups, as:
Animal sacrifice occurred over 5 and 10 days, respectively from the last cytostatic dose. After animal sacrifice, some tests were performed: bio-chemical, cyto-histological and morphological tests (on liver, spleen, kidneys), and tests for 3HTdR incorporation into lymphoid organs (bone marrow and lympho-nodules).
The protective effect of the 60 ppm Deuterium Depleted Water against the toxicity generated by cytostatics were studied using lots of 88 Wistar rats, each lot, males and females, with an average weight of 172 g. The animal lots were established as per GLP on pharmacological studies on laboratory-tested animals.

The conditions of data set [2]: serum, 8 rats per lot.
The nature of data set [3]: Measurement of protein, glycoprotein and serum protein glycolysis. The following applies: for Amount of glycolysis with Deuterium Depleted Water: 60 ppm DDW daily diet; for Percentage of decrease of protein glycolysis in animals receiving DDW: DDW versus tap water; for Amount of Glycolysis with Tap Water: tap water daily diet. It is filed as in vivo, Wistar rats. The text has this: The methods used for these measurements are well known (measuring burette and the (glucidic) glucose compound dosing in the reaction with orto-toluidine).

For data set [4] the following is noted: TW-control group (150 ppm Deuterium tap water daily diet).
Procedure: The studies were performed using samples from peripheral blood, hematogenous marrow and lymphatic ganglions. The prepared samples were classically stained with May-Grünwald-Giemsa.
[5] abbreviates: DDW group, cytostatic i.p. 5 days.
[6] abbreviates: TW-control group similarly treated, animals with obvious toxicity signs had to be sacrificed.
The mark [7] stands for this setting: DDW group (daily diet with Deuterium Depleted Water).

Experimental findings from patent US20080213390A1, “Deuterium Depleted Water (Ddw) Using As Adjuvant In Cancer Therapy For Cytostatics Toxicity Reducing” (priority 2005, published 2008) are described below.

Where two headings read alike, the source gives them in different places.

Procedure for P450 cyto-chromes: To study it, the cell organelles were separated by repeated centrifugation with a final separation of microsomes at 105,000 g via ultra-centrifugation. At the microsomes level, the P450 cyto-chromes (a member of the iso-enzymes family) activity and concentration are measured, which are the most important indications of enzyme activation (MFO).
The P450 concentration is spectrophotometrically determined after CO and Natriumdithionit reduction of microsomal P450 (Omura and Sato method). […] The enzymatic activity has been determined for a single substratum, namely for p-nitroanisol, which involves a de-metilation reaction.

As to `O=c1[nH]cc(F)c(=O)[nH]1` [5-fluorouracil, 5-Fluorouracil], the entries for the “spontaneous mortality” value in data set [1] (setting [5]) and in data set [1] (setting [6]) were “no records of any spontaneous dead animals” and “spontaneous mortality occurred”, respectively. Also, the “signs of toxicity during the 5 days of therapy and post-therapy period” value (“signs” below) in data set [1] (rat, in vivo, ip) was “no signs of toxicity”. The entries for the “Sialic acid (average values)” value in data set [2] (setting [7]) and in data set [2] (TW-control group) were 2.43 mmol/L and 3.04 mmol/L, respectively. In data set [3], the “Amount of glycolysis with Deuterium Depleted Water” value was 4.2 mg glucides/g proteins. In addition, the “Percentage of decrease of protein glycolysis in animals receiving DDW” value in data set [3] was 39%. In addition, in data set [3], the “Amount of Glycolysis with Tap Water” value turned out to be 6.89 mg glucides/g proteins. Further, the “P450 activity relative to the control group” value in the data set on P450 cyto-chromes (group of animals treated with Deuterium depleted Water) is recorded as “approximately 200%”.

Turning to `O=P1(N(CCCl)CCCl)NCCCO1` (stereo not drawn) [Cyclophosphamide], in data set [1] (setting [5]), the “signs” value is “no signs of toxicity”; the “spontaneous mortality” value is “no records of any spontaneous dead animals”. Besides, in data set [1] (setting [6]), the “spontaneous mortality” value was “spontaneous mortality occurred”. For the same molecule, in data set [4], the “findings in peripheral blood” value was “anemia and granulopenia”. The “Sialic acid (average values)” value in data set [2] (setting [7]) was determined as 2.68 mmol/L. For the same molecule, the “Sialic acid (average values)” value in data set [2] (TW-control group) is 2.77 mmol/L. In addition, in data set [3], the “Amount of glycolysis with Deuterium Depleted Water” value was determined as 5.47 mg glucides/g proteins, the “Percentage of decrease of protein glycolysis in animals receiving DDW” value amounted to 17% and the “Amount of Glycolysis with Tap Water” value amounted to 6.59 mg glucides/g proteins. The “decrease of the phase I and II enzymes” value in the data set on P450 cyto-chromes (group TW-CFS) is “approximately 100%”.

Turning to `COc1cccc2c1C(=O)c1c(O)c3c(c(O)c1C2=O)C[C@@](O)(C(=O)CO)C[C@@H]3O[C@H]1C[C@H](N)[C@@H](O)[C@H](C)O1` [farmarubicine, Farmarubicine], in data set [1] (setting [5]), the “spontaneous mortality” value is reported as “no records of any spontaneous dead animals”. For the same molecule, the “spontaneous mortality” value in data set [1] (setting [6]) is recorded as “spontaneous mortality occurred”. Also, in data set [1] (rat, in vivo, ip), the “signs” value was “no signs of toxicity”. Further, in data set [2] (setting [7]), the “Sialic acid (average values)” value was 2.62 mmol/L. The “Sialic acid (average values)” value in data set [2] (TW-control group) was 2.88 mmol/L. Further, in data set [3], the “Amount of glycolysis with Deuterium Depleted Water” value is 6.3 mg glucides/g proteins, the “Percentage of decrease of protein glycolysis in animals receiving DDW” value amounted to 35% and the “Amount of Glycolysis with Tap Water” value came out at 9.72 mg glucides/g proteins.

As to `CC[C@]1(O)C[C@@H]2CN(CCc3c([nH]c4ccccc34)[C@@](C(=O)OC)(c3cc4c(cc3OC)N(C)[C@H]3[C@@](O)(C(=O)OC)[C@H](OC(C)=O)[C@]5(CC)C=CCN6CC[C@]43[C@@H]65)C2)C1` [vinblastine, Vinblastine], the percentage of mortality in data set [1] (DDW group (60 ppm DDW daily diet), cytostatic i.p. 5 days) turned out to be 25%. Further, the percentage of mortality in data set [1] (TW-control group (tap water daily diet), cytostatic i.p. 5 days) was found to be 66%. In addition, the body weight increase entry in data set [1] (rat, in vivo) is listed as “far more evident”. The “signs” value in data set [1] (rat, in vivo, ip) is “low intensity toxic effects”. Further, the “Sialic acid (average values)” value in data set [2] (setting [7]) came to 2.82 mmol/L. Further, in data set [2] (TW-control group), the “Sialic acid (average values)” value is 3.00 mmol/L. In data set [3], the “Amount of glycolysis with Deuterium Depleted Water” value is recorded as 7.5 mg glucides/g proteins, the “Percentage of decrease of protein glycolysis in animals receiving DDW” value came to 7% and the “Amount of Glycolysis with Tap Water” value came out at 8.06 mg glucides/g proteins.
